Experimental data taken from patent US11306102B2, “1,3-di-substituted ketene compound and application thereof” (BEBETTER MED INC., priority 2017, dated 2022).

Experiments:
PPARγ = molecular target: T1, PPARγ (Homo sapiens, UniProt P37231); assay: Hela cell/luciferase reporter gene method, PPARγ agonist activity; type: cell-based; settings: for EC50: Hela cells, pPPRE3-TK-Luciferase reporter, 24 hrs incubation, read-out: agonistic activity on PPARγ (EC50)
T1 construct: expressed in transfected cells; host or cells: Hela cells
T1 sequence (P37231 1-505): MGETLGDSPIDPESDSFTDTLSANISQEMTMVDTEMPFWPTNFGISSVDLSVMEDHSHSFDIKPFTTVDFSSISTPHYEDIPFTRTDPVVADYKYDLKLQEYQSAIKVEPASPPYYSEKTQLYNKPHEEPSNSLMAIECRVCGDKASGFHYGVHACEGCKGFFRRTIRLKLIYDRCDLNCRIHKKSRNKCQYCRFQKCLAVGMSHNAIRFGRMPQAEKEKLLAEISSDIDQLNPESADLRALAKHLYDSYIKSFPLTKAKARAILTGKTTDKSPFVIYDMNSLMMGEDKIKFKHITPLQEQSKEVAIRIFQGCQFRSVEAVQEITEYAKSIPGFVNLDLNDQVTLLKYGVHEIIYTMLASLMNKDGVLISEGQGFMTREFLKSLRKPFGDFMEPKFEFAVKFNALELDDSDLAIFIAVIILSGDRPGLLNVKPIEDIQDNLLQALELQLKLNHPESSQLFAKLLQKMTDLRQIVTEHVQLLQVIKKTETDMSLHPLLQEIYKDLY
In short: (§1)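 HeLa cells co-transfected with pPPRE3-TK-firefly luciferase and PPARα, δ or γ expression vector (reporter:receptor 6:1, 8:1, 2:1 respectively). Cells exposed 24 h at 37 °C in 1% FBS medium to 8-point 4-fold dilution series; luciferase luminescence read, EC50 derived.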

[1] = Pharmacokinetic (PK) experiments after intragastric administration in rats; type: in vivo, SD rats; settings: for AUC(0-inf) / AUC(0-t) / Cmax / Tmax / half-life: male, SD, rat, plasma, po, intragastric administration 20 mg/kg; for half-life: read-out: Terminal T1/2 (converted)
Experimental: Male SD rats, weighing 250-300 grams, were fasted overnight before testing. The test compound was dissolved in 30% sulfobutyl-R-cyclodextrin (SBE-β-CD) and administered intragastrically at a dose of 20 mg/kg. Blood was collected 15 minutes, 30 minutes, and 1, 2, 3, 4, […] and 24 hours after the administration. About 0.3 ml of blood was collected at each time point, placed in a centrifuge tube containing K2-EDTA (dipotassium ethylenediamine tetraacetate) and centrifuged (2,000 g, 10 minutes, 4° C.) to take the plasma, which was stored in an ultra-low temperature refrigerator at −80° C. A 50 μL plasma sample was mixed with 5 μl of internal standard (IS) and extracted with ethyl acetate. The residue was redissolved in acetonitrile after drying under vacuum. The sample was filtered and injected into an LC-MS/MS for analysis.

PPARα = molecular target: T2, PPARα (Homo sapiens, UniProt Q07869); assay: Hela cell/luciferase reporter gene method, PPARα agonist activity; type: cell-based; settings: for EC50: Hela cells, pPPRE3-TK-Luciferase reporter, 24 hrs incubation, read-out: agonistic activity on PPAα (EC50); for ratio of PPARγ/PPARα activated (EC50 ratio): under the experimental conditions of the present disclosure
T2 construct: expressed in transfected cells; host or cells: Hela cells
T2 sequence (Q07869 1-468): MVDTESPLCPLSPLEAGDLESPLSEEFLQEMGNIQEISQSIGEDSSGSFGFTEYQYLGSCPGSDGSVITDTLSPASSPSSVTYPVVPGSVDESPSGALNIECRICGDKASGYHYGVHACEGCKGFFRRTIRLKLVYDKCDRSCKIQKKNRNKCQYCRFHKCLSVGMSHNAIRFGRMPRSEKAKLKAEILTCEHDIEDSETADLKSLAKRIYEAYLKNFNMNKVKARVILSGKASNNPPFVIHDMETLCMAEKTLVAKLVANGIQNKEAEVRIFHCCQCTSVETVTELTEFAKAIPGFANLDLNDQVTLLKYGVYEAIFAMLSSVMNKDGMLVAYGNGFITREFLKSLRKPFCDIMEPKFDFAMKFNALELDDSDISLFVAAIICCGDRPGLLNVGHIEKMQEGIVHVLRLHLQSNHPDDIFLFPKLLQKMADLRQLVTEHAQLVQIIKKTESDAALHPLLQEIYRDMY
In short: as §1

Structure (SMILES)	EC50 (PPARγ) [µM]	AUC(0-inf) [1] [ng·h/mL]	AUC(0-t) [1] [ng·h/mL]	Cmax [1] [ng/mL]	Tmax [1] [h]	half-life [1] [h]	absorption after oral administration compared with Elafibranor (in words) [1]	blood exposure after oral administration compared with Elafibranor (in words) [1]	half-life after oral administration compared with Elafibranor (in words) [1]	EC50 (PPARα) [µM]	activation of PPARγ compared with Elafibranor (in words) (PPARγ)	ratio of PPARγ/PPARα activated (EC50 ratio) (PPARα)
CSc1ccc2cc(C(=O)/C=C/c3cc(C)c(OC(C)(C)C(=O)O)c(C)c3)sc2c1 [Compound 81, (E)-2-(2,6-dimethyl-4-(3-(6-(methylthio)benzo[b]thiophen-2-yl)-3-oxoprop-1-en-1-yl)phenoxy)-2-methylpropanoic acid]	0.0941	811	806	302	0.25	3.35	good absorption	highly effective blood exposure	significantly prolonged half-life	0.0249	–	–
CSc1ccc2cc(C(=O)/C=C/c3cc(Cl)c(OC(C)(C)C(=O)O)c(Cl)c3)oc2c1 [Compound 100, (E)-2-(2,6-dichloro-4-(3-(6-(methylthio)benzofuran-2-yl)-3-oxoprop-1-en-1-yl)phenoxy)-2-methylpropanoic acid]	0.475	14000	13800	7730	0.25	4.41	good absorption	highly effective blood exposure	significantly prolonged half-life	0.002	significantly reduced	237.55
CSc1ccc2c(C)c(C(=O)/C=C/c3cc(Cl)c(OC(C)(C)C(=O)O)c(Cl)c3)oc2c1 [Compound 103, (E)-2-(2,6-dichloro-4-(3-(3-methyl-6-(methylthio)benzofuran-2-yl)-3-oxoprop-1-en-1-yl)phenoxy)-2-methylpropanoic acid]	0.788	50900	50400	5030	4.08	3.28	good absorption	highly effective blood exposure	significantly prolonged half-life	0.0087	significantly reduced	90.59
